Assays:
MAPT exon 10 = test: MAPT minigene exon 10 splicing in transfected cell lines; assay type: cell-based; settings: 60 μM, 24 hours, MAPT minigenes, all three mutations tested
Description: FIGS. 4C-4F Upper row: The sequences at the 5′ splice site of Exon X in patient cells and minigene constructs are shown (FIGS. 4C-4F). The sequences around the 5′ splice site of Exon X are shown in LOGO plots, with the closely matched CNN motifs indicated beneath the plots. […] Middle row: RT-PCR experiments validated treatment responses in patient cell lines carrying specific splice site mutations. The upper bands indicate the isoform in which the middle Exon X is included while the lower bands indicate the isoform in which the middle Exon X is skipped. Each set of gels is one of the triplicates used to generate the bar plots beneath. […] The statistical significance, as shown in FIGS. 4C-4F, was determined via two-tailed, unpaired Student's test: *p<0.05; **p<0.01; ***p<0.001.
In another example from Table 18, several MAPT minigenes encompassing exons 9 to 11 and flanking exon 10 intronic sequences, with the three mutations listed in Table 17: c.1866+3 G>A, c.1865 G>A or c.1788 T>G were prepared. These mutations were predicted by SpliceA1 to promote inclusion of MAPT exon 10. […] An increase in MAPT exon 10 inclusion is responsible for familial frontotemporal dementia and Parkinsonism linked to chromosome 17 (FTDP-17, MIM #600274). […]

CPSF7 minigene, Exon X = test: CPSF7 minigene splicing assay, RT-PCR; assay type: cell-based; settings: mutated CPSF7 minigene
Description: FIGS. 3E-3G Upper row: The length of the exon triplets cloned into minigenes constructs are shown. The flanking sequences of the 5′ splice sites of Exon X are shown in LOGO plots. The height of each nucleotide was estimated using in silico saturated mutagenesis, with the corresponding closely matched CNN Motifs indicated below the plots. […] Middle row: Splicing changes for Exon X in both wildtype and mutated exon triplets, predicted by the CNN model (left) and measured by RT-PCR of the minigene (right). The RT-PCR experiments were performed in duplicate and independently repeated three times for each minigene to make the bar plots (two-tailed, unpaired Student's t test). Bottom row: Example of splicing changes induced by treatment with Compound (I) in the minigene splicing assays. The percentage for Exon X inclusion is indicated beneath each lane, from treated and untreated conditions in both wildtype and mutated minigenes. […] The statistical significance, as shown in FIGS. 3E-3G, was determined via two-tailed, unpaired Student's test: *p<0.05; **p<0.01; ***p<0.001. […]
Wild-type and mutant double-stranded DNA (dsDNA) fragments, selected based on low nucleotide length and exon-skipping probability, were ordered through GENEWIZ (FragmentGENE). […] Concentrations were determined using a nanodrop spectrometer.

How did the “exon 10 splicing” value (MAPT exon 10) turn out when Clc1nc(NCc2ccncc2)c2cc[nH]c2n1 [Compound (I), 2-chloro-N-(pyridin-4-ylmethyl)-7H-pyrrolo[2,3-d]pyrimidin-4-amine] was run?
Its value is “significantly promoted exon 10 exclusion”.

And the “Exon X splicing response confirmed by RT-PCR” value (CPSF7 minigene, Exon X)?
The value was “inclusion”.

— patent US20230047208A1, “RNA Splicing Modulation” (The General Hospital Corporation, priority 2020, published 2023)
